For one series, the system named is Hepatitis C virus. The experiment in a line: Antiviral activity against HCV genotype 1b Con1 bicistronic replicon infected in human Huh7 cells assessed as replicon RNA expression measured 3 days post dose by real time RT-PCR analysis. The format is functional, organism-based, Hepacivirus hominis. As to conditions: isolate Con1, Huh-7, 72 h. (In antiviral work, replicon cells carry a viral genome segment that copies itself.)

A short description of series [1]: Toxicity against human HuH7 cells harboring HCV genotype 1b bicistronic replicon assessed as inhibition of GAPDH mRNA expression measured 3 days post dose by real time RT-PCR analysis. The format is cell-based, Huh-7.

`Cc1cc2c(cc1F)c(C(N)=O)c(-c1ccc(NS(=O)(=O)C(C)(C)C)cc1)n2C1CCOCC1`: the EC50 (usually the concentration at which the effect is half-maximal) in the series on Hepatitis C virus was found to be 17 nM. Besides, in series [1], the IC50 – broadly, the concentration that inhibits the measured activity by half – at 3 days was greater than 10000 nM.

`Cc1cc2c(cc1F)c(C(N)=O)c(-c1ccc(NS(=O)(=O)C(C)(C)C)cc1)n2-c1ccncc1`: in the series with Hepatitis C virus, the concentration giving a half-maximal response (EC50) was 68 nM. Besides, the IC50 at 3 days in series [1] was greater than 10000 nM.

On to `CCCS(=O)(=O)Nc1ccc(-c2c(C(N)=O)c3cc(F)c(C)cc3n2C2CCCC2)cc1`, for which the EC50 with Hepatitis C virus worked out at 870 nM. Besides, the 50% inhibitory concentration (IC50) at 3 days in series [1] was greater than 10000 nM.

With `CC(C)(C)S(=O)(=O)Nc1ccc(-c2c(C(N)=O)c3cc(F)c(OC(F)F)cc3n2C2CCCCC2)cc1F`, the EC50 in the series on Hepatitis C virus turned out to be 3 nM. For the same compound, in series [1], the IC50 at 3 days was greater than 1000 nM.

In the case of `CCc1cc2c(cc1F)c(C(N)=O)c(-c1ccc(NS(=O)(=O)C(C)C)cc1)n2C1CCCC1`, the concentration giving a half-maximal response (EC50) with Hepatitis C virus amounted to 68 nM. The IC50 at 3 days in series [1] was greater than 10000 nM.

For `CCCc1cc2c(cc1F)c(C(N)=O)c(-c1ccc(NS(=O)(=O)C(C)(C)C)cc1)n2C1CCCC1`, in the series on Hepatitis C virus, the EC50 came to 1800 nM. Moreover, in series [1], the IC50 at 3 days is 10000 nM.

With `CCc1cc2c(cc1F)c(C(N)=O)c(-c1ccc(NS(=O)(=O)C(C)(C)C)nc1)n2C1CCCCC1`, the EC50 in the series with Hepatitis C virus was 19 nM. The concentration for half-maximal inhibition (IC50) at 3 days in series [1] was greater than 10000 nM.

Regarding `Cc1cc(-c2c(C(N)=O)c3cc(F)c(OC(F)F)cc3n2-c2ccccc2)ccc1NS(=O)(=O)C(C)(C)C`, in the series with Hepatitis C virus, the EC50 worked out at 120 nM. Besides, the IC50 at 3 days in series [1] is greater than 10000 nM.

On to `Cc1cc(NS(=O)(=O)C(C)(C)C)ccc1-c1c(C(N)=O)c2cc(F)c(OC(F)F)cc2n1C1CCCC1`, for which the EC50 with Hepatitis C virus is 14 nM. Besides, the IC50 at 3 days in series [1] came out at 9100 nM.

Take `COc1cc2c(cc1F)c(C(N)=O)c(-c1ccc(NS(=O)(=O)C(C)(C)C)cc1)n2C1CCCC1`: the EC50 with Hepatitis C virus is 59 nM. Also, the IC50 at 3 days in series [1] is greater than 10000 nM.

As to `Cc1cc(F)c2c(C(N)=O)c(-c3ccc(NS(=O)(=O)C(C)(C)C)cc3)n(C3CCCC3)c2c1`, the EC50 in the series with Hepatitis C virus amounted to 34 nM. Moreover, the IC50 at 3 days in series [1] is greater than 10000 nM.

For the compound `CC(C)c1cc2c(cc1F)c(C(N)=O)c(-c1ccc(NS(=O)(=O)C(C)(C)C)cc1)n2C1CCCC1`, the EC50 in the series with Hepatitis C virus is 170 nM. For the same compound, the IC50 at 3 days in series [1] is greater than 10000 nM.

Regarding `Cc1cc2c(cc1F)c(C(N)=O)c(-c1ccc(NS(=O)(=O)C(C)(C)C)cc1)n2-c1cccnc1`, in the series on Hepatitis C virus, the EC50 was found to be 180 nM. In addition, the 50% inhibitory concentration (IC50) at 3 days in series [1] is greater than 10000 nM.

As to `Cc1cc(-c2c(C(N)=O)c3cc(F)c(OC(F)F)cc3n2C2CCCCC2)ccc1NS(=O)(=O)C(C)(C)C`, the EC50 in the series with Hepatitis C virus was determined as 36 nM. Also, the IC50 at 3 days in series [1] is greater than 1000 nM.

`CC(C)(C)S(=O)(=O)Nc1ccc(-c2c(C(N)=O)c3cc(F)c(OC(F)F)cc3n2-c2ccccc2)cc1F`: in the series on Hepatitis C virus, the EC50 came out at 12 nM. Further, in series [1], the IC50 at 3 days was greater than 1100 nM.

For `CCc1cc2c(cc1F)c(C(N)=O)c(-c1ccc(NS(=O)(=O)C(C)(C)C)cc1)n2C1CCCCC1`, the EC50 with Hepatitis C virus worked out at 4 nM. In series [1], the IC50 at 3 days was greater than 10000 nM.

With `Cc1cc(NS(=O)(=O)C(C)(C)C)ccc1-c1c(C(N)=O)c2cc(F)c(OC(F)F)cc2n1-c1ccccc1`, the EC50 with Hepatitis C virus came to 2 nM. Besides, in series [1], the IC50 at 3 days is greater than 10000 nM.

With `CCOc1cc2c(cc1F)c(C(N)=O)c(-c1ccc(NS(=O)(=O)C(C)(C)C)cc1)n2C1CCCC1`, in the series with Hepatitis C virus, the EC50 was 150 nM. For the same compound, the IC50 at 3 days in series [1] is greater than 10000 nM.

With `CC(C)(C)S(=O)(=O)Nc1ccc(-c2c(C(N)=O)c3cc(F)c(C4CC4)cc3n2C2CCCC2)cc1`, in the series on Hepatitis C virus, the EC50 was found to be 13 nM. Further, the IC50 at 3 days in series [1] was greater than 10000 nM.

Turning to `CCc1cc2c(cc1F)c(C(N)=O)c(-c1ccc(NS(=O)(=O)C(C)(C)C)cn1)n2C1CCCCC1`, the EC50 in the series with Hepatitis C virus was 68 nM. Besides, the IC50 at 3 days in series [1] was greater than 10000 nM.

As to `Cc1cc2c(cc1F)c(C(N)=O)c(-c1ccc(NS(=O)(=O)C(C)C)cc1)n2C1CCCC1`, the EC50 in the series with Hepatitis C virus is 56 nM. The IC50 at 3 days in series [1] was greater than 10000 nM.

`CC(C)(C)S(=O)(=O)Nc1ccc(-c2c(C(N)=O)c3cc(F)c(OC(F)F)cc3n2C2CCCCC2)cc1Cl`: in the series on Hepatitis C virus, the EC50 came to 305 nM. Also, the IC50 at 3 days in series [1] was greater than 1000 nM.

(Values after ChEMBL document CHEMBL3751735, “Discovery of 2-(4-sulfonamidophenyl)-indole 3-carboxamides as potent and selective inhibitors with broad hepatitis C virus genotype activity targeting HCV NS4B” (Bioorg Med Chem Lett, 2016).)
